From US10052289B2, “Composition comprising an active agent with low aqueous solubility” (Flamel Ireland Limited, priority 2008, dated 2018)
≈ marks a conversion by molar mass, not a printed value. Where “and” joins values, the source holds several entries; their conditions need not be identical. Equal entries are not always repeated. Where two headings read alike, the source gives them in different places. One block for each compound: values may come before it.

Experiments:
physchem [1] = details: thermodynamic from solid
[2] = Protocol: The preparation is centrifuged at 9,000 rpm for 30 minutes.
[3] = Solubilization of ketoconazole in concentrated POM polymer solution (visual check); assay type: physicochemical; details: for solubility: pH 7, aqueous with cosolvent or surfactant or cyclodextrin, thermodynamic from solid
Remark: listed apart in the source
[4] = background statement; cited from earlier work
[5] = Solubilization of paclitaxel in aqueous POM polymer solution at 20 mg/ml (visual check); assay type: physicochemical; details: for Solubilized active ingredient in μmol per g of polymer / Total concentration of active ingredient solibilized for 20 g/l of polymer: 20 g/l, pH 7.0, ambient temperature
Protocol: 4.99 mg of paclitaxel (Bioxel) are introduced into a pill-box.
10.33 mg of paclitaxel (Bioxel) are introduced into a pill-box.
7 mg of paclitaxel (Bioxel) are introduced into a pill-box.

physchem [6] = details: for solubility at […]: 37 °C, pH 7, aqueous buffer, thermodynamic from solid
Protocol: 0.49 mg of paclitaxel (Bioxel) is introduced into a 2 liter volumetric flask. The flask is topped up to the fill line with a 0.05 M phosphate buffer at pH 7.0. The preparation is stirred using a magnetic bar, at 37° C.
The preparation is then placed in an ultrasonic bath for 60 min at ambient temperature.

[7] = Solubilization of paclitaxel in concentrated aqueous POM polymer solution (visual check); assay type: physicochemical; details: for solubility: concentrated aqueous POM polymer solution
Protocol: 21.21 mg of paclitaxel (Bioxel) are introduced into a pill-box.
39.68 mg of paclitaxel (Bioxel) are introduced into a pill-box.
35.05 mg of paclitaxel (Bioxel) are introduced into a pill-box.

[8] = pH 7.0, ambient temperature
physchem [9] = details: pH 7, aqueous buffer, thermodynamic from solid, solubility in the absence of polymer
Protocol: 40 to 50 mg of carvedilol base are introduced into a 15 ml Falcon tube. 5 ml of aqueous solution of concentrated POM polymer at 20 mg/ml and at pH 7.0 are added. […] After this stage, the preparation is centrifuged at 9,000 rpm for 30 minutes in order to eliminate any undissolved crystals. […] It is diluted 1,000 times with a phosphate buffer at pH 7.0. The concentration of solubilized carvedilol is determined by UV spectrometry (at a wavelength of 240 nm and using a cell with a 1 cm optical path).

physchem [10] = details: concentrated aqueous POM polymer solution, pH 7, aqueous with cosolvent or surfactant or cyclodextrin, thermodynamic from solid, Total concentration of solubilized active ingredient, ambient temperature
[11] = sodium polyglutamate DP=100, 10% VE, 52.8 mg/ml, pH 7.0, ambient temperature
[12] = sodium polyglutamate DP=100, 15% VE, 84.6 mg/ml, pH 7.0, ambient temperature
[13] = sodium polyglutamate DP=100, 20% VE, 156 mg/ml, pH 7.0, ambient temperature
[14] = sodium polyglutamate DP=100, 30% VE, 53.5 mg/ml, pH 7.0, ambient temperature
[15] = sodium polyglutamate DP=100, 5% VE
[16] = sodium polyglutamate DP=100, 10% VE
[17] = sodium polyglutamate DP=100, 15% VE
[18] = sodium polyglutamate DP=100, 20% VE
[19] = sodium polyglutamate DP=100, 10% VE, 52.8 mg/ml
[20] = sodium polyglutamate DP=100, 15% VE, 84.6 mg/ml
[21] = sodium polyglutamate DP=100, 20% VE, 156 mg/ml

SMILES: CC(=O)N1CCN(c2ccc(OCC3COC(Cn4ccnc4)(c4ccc(Cl)cc4Cl)O3)cc2)CC1 (centres unmarked) [ketoconazole]
solubility (physchem [1]; aqueous POM polymer solution, pH 7, aqueous with cosolvent or surfactant or cyclodextrin, Total concentration of solubilized active ingredient for 20 g/l of polymer, sodium polyglutamate DP=100, 2% VE, 20 g/l, pH 7.0, ambient temperature): 0.565 mM (≈ 300 µg/mL)
solubility (physchem [1]; aqueous POM polymer solution, pH 7, aqueous with cosolvent or surfactant or cyclodextrin, Total concentration of solubilized active ingredient for 20 g/l of polymer, sodium polyglutamate DP=100, 5% VE, 20 g/l, pH 7.0, ambient temperature): 2.54 mM (≈ 1350 µg/mL)
solubility (physchem [1]; aqueous POM polymer solution, pH 7, aqueous with cosolvent or surfactant or cyclodextrin, Total concentration of solubilized active ingredient for 20 g/l of polymer, sodium polyglutamate DP=100, 10% VE, 20 g/l, pH 7.0, ambient temperature): 7.16 mM (≈ 3810 µg/mL)
solubility (physchem [1]; aqueous POM polymer solution, pH 7, aqueous with cosolvent or surfactant or cyclodextrin, Total concentration of solubilized active ingredient for 20 g/l of polymer, sodium polyglutamate DP=100, 15% VE, 20 g/l, pH 7.0, ambient temperature): 7.16 mM (≈ 3810 µg/mL)
solubility (physchem [1]; aqueous POM polymer solution, pH 7, aqueous with cosolvent or surfactant or cyclodextrin, Total concentration of solubilized active ingredient for 20 g/l of polymer, sodium polyglutamate DP=100, 20% VE, 20 g/l, pH 7.0, ambient temperature): 6.97 mM (≈ 3700 µg/mL)
solubility (physchem [1]; aqueous medium without polymer, pH 7, aqueous buffer, solubility in the absence of polymer, pH 7.0, absence of polymer): ~0.02 mM (≈ 10.6 µg/mL)
factor of increase of solubility [2]: approximately 200
solubility ([3]; concentrated aqueous POM polymer solution, concentrated polymers DP=100 containing between 15% and 20% vitamin E, read-out: concentrations of solubilized active ingredient): > 30 mM
solubility ([3]; concentrated aqueous POM polymer solution, sodium polyglutamate DP=100, 15% VE, 84.6 mg/ml, pH 7.0, ambient temperature, read-out: Total concentration of solubilized active ingredient): 31.1 mM (≈ 16500 µg/mL)
solubility ([3]; sodium polyglutamate DP=100, 10% VE, 52.8 mg/ml, pH 7.0, ambient temperature, read-out: Total concentration of solubilized active ingredient): 16 mM (≈ 8500 µg/mL)
solubility ([3]; sodium polyglutamate DP=100, 20% VE, 156 mg/ml, pH 7.0, ambient temperature, read-out: Total concentration of solubilized active ingredient): 53.5 mM (≈ 28400 µg/mL)
solubility ([3]; sodium polyglutamate DP=100, 30% VE, 53.5 mg/ml, pH 7.0, ambient temperature, read-out: Total concentration of solubilized active ingredient): 14.1 mM (≈ 7490 µg/mL)
Solubilized active ingredient in μmol per g of polymer [3, 11]: 303 μmol per g of polymer
Solubilized active ingredient in μmol per g of polymer [3, 12]: 367 μmol per g of polymer
Solubilized active ingredient in μmol per g of polymer [3, 13]: 343 μmol per g of polymer
Solubilized active ingredient in μmol per g of polymer [3, 14]: 264 μmol per g of polymer
Solubilized active ingredient in μmol per g of polymer (sodium polyglutamate DP=100, 2% VE, 20 g/l, pH 7.0, ambient temperature): 28 μmol per g of polymer
Solubilized active ingredient in μmol per g of polymer (sodium polyglutamate DP=100, 5% VE, 20 g/l, pH 7.0, ambient temperature): 127 μmol per g of polymer
Solubilized active ingredient in μmol per g of polymer (sodium polyglutamate DP=100, 10% VE, 20 g/l, pH 7.0, ambient temperature): 358 μmol per g of polymer
Solubilized active ingredient in μmol per g of polymer (sodium polyglutamate DP=100, 15% VE, 20 g/l, pH 7.0, ambient temperature): 358 μmol per g of polymer
Solubilized active ingredient in μmol per g of polymer (sodium polyglutamate DP=100, 20% VE, 20 g/l, pH 7.0, ambient temperature): 348 μmol per g of polymer

μmol of paclitaxel per gram of POM polymer ([5]; 20 mg/ml polyglutamate DP=100, 20% VE): 47 μmol per gram of POM polymer
solubility at […] ([5]; aqueous polyglutamate (POM) polymer solution, pH 7, aqueous with cosolvent or surfactant or cyclodextrin, thermodynamic from solid, 20 mg/ml polyglutamate DP=100, 20% VE): ~800 µg/mL (≈ 937 µM)
Solubilized active ingredient in μmol per g of polymer [5, 15]: 12 μmol per g of polymer
Total concentration of active ingredient solibilized for 20 g/l of polymer [5, 15]: 0.00023 mol/L
Solubilized active ingredient in μmol per g of polymer [5, 16]: 29 μmol per g of polymer
Total concentration of active ingredient solibilized for 20 g/l of polymer [5, 16]: 0.00059 mol/L
Solubilized active ingredient in μmol per g of polymer [5, 17]: 47 μmol per g of polymer
Total concentration of active ingredient solibilized for 20 g/l of polymer [5, 17]: 0.00094 mol/L
Solubilized active ingredient in μmol per g of polymer [5, 18]: 47 μmol per g of polymer
Total concentration of active ingredient solibilized for 20 g/l of polymer [5, 18]: 0.00094 mol/L
solubility at […] (physchem [6]; solubility in an aqueous buffer): < 0.25 µg/mL and < 0.3 µM
solubility at […] (physchem [6]; solubility of the active ingredient measured without polymer): 0.0003 mM (≈ 0.256 µg/mL)
μmol of paclitaxel per gram of POM polymer ([7]; 90 mg/ml polyglutamate 20% VE): 49 μmol per gram of POM polymer
solubility at 5 h ([7]; aqueous polyglutamate (POM) polymer solution, pH 7, aqueous with cosolvent or surfactant or cyclodextrin, thermodynamic from solid, 90 mg/ml polyglutamate 20% VE): 3500 to 4000 µg/mL (≈ 4100 to 4680 µM)
solubility ([7]; pH 7, aqueous with cosolvent or surfactant or cyclodextrin, thermodynamic from solid, concentrated polymers DP=100 containing between 15% and 20% vitamin E, read-out: concentrations of solubilized active ingredient): > 3 mM
solubility ([7]; pH 7, aqueous with cosolvent or surfactant or cyclodextrin, thermodynamic from solid, sodium polyglutamate DP=100, 10% VE, 52.8 mg/ml, pH 7.0, ambient temperature, read-out: Total concentration of solubilized active ingredient): 1.5 mM (≈ 1280 µg/mL)
solubility ([7]; pH 7, aqueous with cosolvent or surfactant or cyclodextrin, thermodynamic from solid, sodium polyglutamate DP=100, 15% VE, 84.6 mg/ml, pH 7.0, ambient temperature, read-out: Total concentration of solubilized active ingredient): 3.5 mM (≈ 2990 µg/mL)
solubility ([7]; pH 7, aqueous with cosolvent or surfactant or cyclodextrin, thermodynamic from solid, sodium polyglutamate DP=100, 20% VE, 156 mg/ml, pH 7.0, ambient temperature, read-out: Total concentration of solubilized active ingredient): 6.4 mM (≈ 5470 µg/mL)
solubility ([7]; pH 7, aqueous with cosolvent or surfactant or cyclodextrin, thermodynamic from solid, sodium polyglutamate DP=100, 30% VE, 53.5 mg/ml, pH 7.0, ambient temperature, read-out: Total concentration of solubilized active ingredient): < 1.4 mM
Solubilized active ingredient in μmol per g of polymer [7, 11]: 29 μmol per g of polymer
Solubilized active ingredient in μmol per g of polymer [7, 12]: 42 μmol per g of polymer
Solubilized active ingredient in μmol per g of polymer [7, 13]: 41 μmol per g of polymer
Solubilized active ingredient in μmol per g of polymer [7, 14]: <26 μmol per g of polymer
SMILES: CC(=O)O[C@H]1C(=O)[C@@]2(C)[C@H]([C@H](OC(=O)c3ccccc3)[C@]3(O)C[C@H](OC(=O)[C@H](O)[C@@H](NC(=O)c4ccccc4)c4ccccc4)C(C)=C1C3(C)C)[C@]1(OC(C)=O)CO[C@@H]1C[C@@H]2O [paclitaxel]
aqueous solubility [4]: less than 1 μg/ml
appearance after ultrasonic treatment (physchem [6]; 0.49 mg paclitaxel in 2 liter 0.05 M phosphate buffer pH 7.0, after stirring, ultrasonic bath 60 min at ambient temperature): A few grains of powder are still undissolved
appearance after magnetic stirring (physchem [6]; 0.49 mg paclitaxel in 2 liter 0.05 M phosphate buffer pH 7.0, magnetic stirring […] at 37° C.): a few grains of undissolved powder remain

Solubilized active ingredient in μmol per g of polymer [8, 19]: 638 μmol per g of polymer
Solubilized active ingredient in μmol per g of polymer [8, 20]: 474 μmol per g of polymer
Solubilized active ingredient in μmol per g of polymer [8, 21]: 543 μmol per g of polymer
solubility at 90 min (physchem [9]): 0.12 mM (≈ 48.8 µg/mL)
solubility (physchem [10]; [19]): 33.7 mM (≈ 13700 µg/mL)
solubility (physchem [10]; [20]): 40.1 mM (≈ 16300 µg/mL)
solubility (physchem [10]; [21]): 84.6 mM (≈ 34400 µg/mL)
Solubilized active ingredient in μmol per g of polymer (pH 7): 28 μmol per g of polymer
Total concentration of solubilized active ingredient for 20 g/l of polymer (pH 7): 0.000565 mol/L
SMILES: COc1ccccc1OCCNCC(O)COc1cccc2[nH]c3ccccc3c12 (centres unmarked) [carvedilol base, carvedilol]
